Assay results reported in patent US20210154372A1, “MEDICAL DEVICE WITH DRUG-ELUTING COATING AND INTERMEDIATE LAYER” (C.R. Bard, Inc., priority 2017, published 2021).

Columns and labels:
[1] = octanol/water; cited from earlier work
[2] = BSA added; cited from earlier work
[3] = system: tissues at the target site; assay: drug absorption by tissue after 0.2-2 minute deployment of coated balloon; assay type: in vivo; conditions: coating with paclitaxel, after 0.2-2 minutes of deployment
Serum albumin = conditions: cited from earlier work
[4] = stability of additive with paclitaxel under ethylene oxide sterilization, heating and aging; conditions: reacted with paclitaxel

Compound: COc1ccc(O)c(C(C)(C)C)c1 [Butylated hydroxyanisole]
- log P [1]: 1.31

Compound: CC(=O)O[C@H]1C(=O)[C@@]2(C)[C@H]([C@H](OC(=O)c3ccccc3)[C@]3(O)C[C@H](OC(=O)[C@H](O)[C@@H](NC(=O)c4ccccc4)c4ccccc4)C(C)=C1C3(C)C)[C@]1(OC(C)=O)CO[C@@H]1C[C@@H]2O [paclitaxel]
- increase of solubility in PBS with the addition of BSA [2]: over 20 fold

Compound: PEG-20 sorbitan monolaurate [Tween 20]
- log P [1]: about 3.0

Compound: O=C1O[C@H](CO)[C@@H](O)[C@H]1O [ribonic acid lactone]
- drug absorption by tissue [3]: unexpectedly high

Compound: OC[C@@H](O)[C@@H](O)[C@H](O)[C@@H](O)CO [sorbitol]
- log P [1]: −4.67

Compound: CO[C@H]1C[C@@H]2CC[C@@H](C)[C@@](O)(O2)C(=O)C(=O)N2CCCC[C@H]2C(=O)O[C@H]([C@H](C)C[C@@H]2CC[C@@H](O)[C@H](OC)C2)CC(=O)[C@H](C)/C=C(\C)[C@@H](O)[C@@H](OC)C(=O)[C@H](C)C[C@H](C)/C=C/C=C/C=C/1C [rapamycin]
- protein bound (Serum albumin): 92%
- share of protein binding that is to albumin (Serum albumin; primarily to albumin): 97%

Compound: O=C1O[C@H](CO)[C@@H](O)[C@H](O)[C@H]1O [gluconolactone]
- drug absorption by tissue [3]: unexpectedly high

Compound: O=C(O)c1ccccc1 [benzoic acid]
- stability under ethylene oxide sterilization, heating, and aging process [4]: not stable
